Results reported in patent publication US10195220B2, “Hydrogen sulphide compounds” (Aston University, priority 2013, dated 2019).

Experiments:
[1] = test system: first trimester human placental explants; assay: Angiogenic factor release from first trimester placental villus explants (ELISA of conditioned medium); format: cell-based; conditions: increasing concentration of PAG over 24 hours
Text: Institutional Ethics Committee approved the blood and tissue collection and written informed consent was obtained. We analysed blood samples from women with singleton pregnancies recruited in the Low- and High-Risk Clinics and Labour and Delivery Unit. All women were followed prospectively from enrolment until delivery. Human placental tissues were collected from pregnancies complicated by preeclampsia and uncomplicated pregnancies delivered by elective Caesarean. Samples of placental tissue were processed for RNA extraction and maternal plasma from the same patients (n=14 PE and n=14 control) were used for analysis. From another set of patients placenta (n=5 PE and n=5 control) was collected for the immunohistochemical study. Preeclampsia was defined as blood pressure >140/90 mm Hg on at least 2 consecutive measurements and maternal proteinuria of at least 300 mg/24 h. First trimester placental tissues (6-9 weeks gestational age) were retrieved from normal pregnancies that had undergone elective termination. Villus explants were prepared as described previously.^29 Briefly, human placental villus explants were incubated with or without PAG for 24 hours, and conditioned media collected and assayed for sFlt-1 or sEng and PlGF.
(§1) Enzyme-linked immunosorbent assay (ELISA) kits for human and murine soluble Flt-1, soluble endoglin and PlGF were obtained from R&D Systems and performed according to the manufacturer's specifications.
Angiogenic factors produced by placenta are important in regulating placental vascular development.^33 Imbalance of pro- and anti-angiogenic factors generated by the placenta^29 may account for the widespread maternal endothelial dysfunction in preeclampsia.^34 To investigate whether reduced levels of CSE has any effect on the production of placental angiogenic factor production, sFlt-1, sEng, and PlGF levels were measured in conditioned medium from first trimester human placental explants in the presence of increasing concentration of CSE inhibitor PAG over 24 hours.

HTR-8/SVneo cells = assay: Trophoblast cell invasion assay (Matrigel-coated transwell); format: cell-based, human; conditions: PAG 50 μM, 24 h, p<0.01, n=3
Method: The human extravillus trophoblast (EVT) cell line HTR-8/SVneo was a kind gift from Professor Charles H. Graham, Queen's University, Kingston, Ontario, Canada. The invasion assay was performed as described previously, with modification.30 Briefly, HTR-8/SVneo (50,000) cells treated with or without PAG were placed in the upper chamber of Matrigel-coated (1 mg/ml) transwell inserts (8 μm pore, Falcon, BD, UK) and housed in a 24-well plate. The cells were allowed to invade through the reconstituted extracellular matrix for 24 h in the presence or absence of 50 µM PAG (n=3). Trophoblast cells located on the under-surface of the transwell membrane were fixed with ice-cold methanol and stained with hematoxylin, and brightfield images were obtained with Nikon inverted microscope and Image Pro Plus image analysis software (Media Cybernetics). Transwell migration assays of HTR-8/SVneo cells in the presence of 50 µM of PAG were performed as described in Methods. (A) Migrated HTR-8/SVneo were stained with hematoxylin, and brightfield images were captured. (B) Cell numbers were counted, and results are expressed as a percentage of the control (n=3).

pregnant C57Bl6/J mice = assay: CSE inhibition in pregnant mice (PAG, with or without GYY4137); format: in vivo
Method: Eight to ten week old C57/black6 mice were mated. The first day of pregnancy (E0.5) was defined by the presence of a vaginal plug the following morning. Pregnant mice were randomly assigned into four groups: (i) saline (vehicle control), (ii) 25 mg/kg DL-propargylglycine (PAG; Sigma, Poole, U.K.), (iii) 50 mg/kg group PAG and (iv) 50 mg/kg
PAG with 0.25 mg/kg of slow-releasing H2S donor, GYY4137(Sigma). Mice were injected intraperitoneally (i.p.) with saline or PAG from E8.5. Blood pressure was measured by tail cuff-plethysmography. Mice were trained for measurement on alternate days from E4.5. Alternatively, mice were anesthetized by Ketamine/Xylazine cocktail. The carotid artery was isolated and cannulated with a 3-Fr high-fidelity microtip catheter connected to a pressure transducer (Millar Instruments, Houston, Tex., USA). Blood pressure was recorded and averaged over a 10-minute period. On E17.5, after blood pressure measurement and blood sample collection the animals were sacrificed and kidney, liver, and placenta were collected. The un-absorbed fetuses and placentas were counted and weighed.
Kidney, liver, and placenta were immersion fixed in 4% paraformaldehyde for 24 hours and processed to paraffin. A series of 5-μm sections were cut and processed for hematoxylin & eosin (H&E) staining.
as §1
Serial 3-5-μm sections of formalin-fixed, paraffin-embedded human and murine placental tissue were prepared for immunohistochemistry as previously described.^29 Biotin-labelled isolectin B4, anti-CSE (5 mg/ml) and isotype control were used. The staining was analyzed using a Nikon inverted microscope and an Image Pro Plus image analysis software (Media Cybernetics).
Citrated blood was obtained from women with uncomplicated pregnancies (n=14) and preeclampsia (n=14) and also from pregnant mice before termination of pregnancy. H2S levels were measured as described previously with modification.^32 Briefly, 75 μl plasma was mixed with 250 μl of 1% (w/v) zinc acetate and 425 μl water, followed by […] 50% trichloroacetic acid to remove protein. Then 133 μl 20 mM N-dimethyl-p-phenylenediamine sulphate in 7.2 mM HCl and 133 μl 30 μM FeCl3 in 1.2 mM HCl were added to the mixture. After 10 min incubation at room temperature, reaction mixtures were pelleted by centrifugation at 10,000 g (2 minutes). The absorbance of the resulting solution was measured at 670 nm with a spectrophotometer in a 96-well plate. The concentration of H2S in the solution was calculated against a calibration curve of sodium hydrogen sulfide.
Three groups (5-8/group) of pregnant C57Bl6/J mice were treated daily with vehicle or 25 mg/kg PAG or 50 mg/kg PAG from E8.5 to E16.5. After 8 days of treatment, plasma was pooled from all animals in each treatment group, and pooled H2S levels were measured. […] The labyrinth zone consists of cells of trophoblast and mesodermal origin that together undergo branching morphogenesis, resulting in a large surface area for nutrient and gas exchange between the mother and fetus. The maternal blood space is lined by trophoblast. During placental development, this space becomes progressively more finely divided.^37, 38 Using isolectin B4 to highlight the fetal endothelial cell,^39 we compared the anatomical features of the labyrinth zone in vehicle and 50 mg/kg PAG-treated mice.

rat = conditions: chronic administration; cited from earlier work
HUVEC = conditions: preeclamptic plasma, 100 mM NaHS
Method: The spontaneous formation of capillary-like structures by HUVECs on growth factor-reduced Matrigel (Becton Dickinson, Bedford, Mass.), was used to assess angiogenic potential. HUVECs were treated with plasma samples collected from pregnancies complicated by preeclampsia and uncomplicated pregnancies with or without H2S donor (NaHS) and incubated at 37° C. for 24 hours. Ninety-six well plates were coated with Matrigel (10 mg/ml) according to the manufacturer's instructions. HUVECs (1×10^4 cells/well) were then seeded on Matrigel-coated plates.

[2] = GYY4137 0.25 mg/kg with 50 mg/kg PAG
[3] = GYY4137 in mice treated with 50 mg/kg PAG

For `C#CCC(N)C(=O)O` (racemic) [PAG, DL-propargylglycine], the PlGF production [1] was “significantly reduced”, the “sEng levels in conditioned medium” value [1] was “remained unchanged” and the “sFlt-1 levels in conditioned medium” value [1] was “remained unchanged”. The “cell invasion compared with vehicle control” value (HTR-8/SVneo cells) was “significant reduction”, the “fetal vasculature of the placenta (isolectin B4)” value (pregnant C57Bl6/J mice; 50 mg/kg PAG) was “irregular branching” and the “plasma levels of sEng” value (pregnant C57Bl6/J mice; 50 mg/kg PAG alone) was “induced”. The “plasma levels of sFlt-1” value (pregnant C57Bl6/J mice; 50 mg/kg PAG alone) was “induced”, the “maternal blood space in the labyrinth zone, versus vehicle controls” value (pregnant C57Bl6/J mice; 50 mg/kg PAG, blinded histology of placental sections) was “appeared larger” and the “circulating H2S levels” value (pregnant C57Bl6/J mice; 25 or 50 mg/kg PAG i.p. daily E8.5 to E16.5, pooled plasma) was “dose-dependent decrease”. The “proteinuria (renal pathological changes)” value (pregnant C57Bl6/J mice; PAG treated animals) was “not noted”, the “circulating liver enzyme aspartate transaminase (AST), liver damage” value (pregnant C57Bl6/J mice; PAG-treated animals) was “increased level” and the mean blood pressure (pregnant C57Bl6/J mice; high dose PAG (50 mg/kg), vehicle control 64.74±2.04) was 74.40±4.61. The “reduction of plasma H2S levels” value (pregnant C57Bl6/J mice; higher dose PAG (50 mg/kg), after 8 days of treatment, pooled plasma) was “approximately 50%”, the fetal weight (pregnant C57Bl6/J mice; higher dose of PAG) was “significantly decreased” and the blood pressure (rat) was “elevated”.

In the case of `C1COCCN1.COc1ccc(P(=S)(S)N2CCOCC2)cc1` (centres unmarked) [GYY4137, morpholin-4-ium 4 methoxy phenyl(morpholino)phosphinodithiolate], the “all the changes of PAG-treated pregnant mice (blood pressure, AST)” value (pregnant C57Bl6/J mice; [2]) is reported as “abrogated”, the “fetal growth compromised by the CSE inhibitor” value (pregnant C57Bl6/J mice; [2]) is reported as “restored” and the “plasma levels of sEng induced by CSE inhibition” value (pregnant C57Bl6/J mice; [3]) is reported as “inhibited”. The “plasma levels of sFlt-1 induced by CSE inhibition” value (pregnant C57Bl6/J mice; [3]) was “inhibited”, the “blood pressure compromised by PAG-treatment” value (pregnant C57Bl6/J mice; GYY4137 with PAG) was “rescued” and the “liver function compromised by PAG-treatment” value (pregnant C57Bl6/J mice; GYY4137 with PAG) was “rescued”. The “placental vascular defect due to inhibition of CSE activity” value (pregnant C57Bl6/J mice; GYY4137 with PAG 50 mg/kg) was “restored”.

With `[Na+].[SH-]` [NaHS, sodium hydrogen sulfide] the “ability of HUVECs to form tube-like structure” value (HUVEC) was “partially restored”.
